Measured values reported in patent US7148253B2, “4-thio coumarins” (priority 2002, dated 2006).
Several values for one entry are separate records, joined by “and”; a condition that tells them apart may be missing. Identical values can stand only once. Like-named read-outs stand apart in the source and are kept apart here.

Tests used:
[1] = tested on: HCV RNA-replicating cell line AVA5; assay: Normalized Viral Assay; assay type: cell-based, Hepatitis C virus
Experimental: (§1) Primary in vitro anti-HCV screen. The antiviral activity of test compounds were assayed in the stably HCV RNA-replicating cell line, AVA5, derived by transfection of the human hepatoblastoma cell line, Huh7 (Blight, et al., 2000, Science 290: 1972). The test compounds were added to dividing cultures once daily for three days. The media was changed with each addition of the compounds. Cultures generally start the assay at 30–50% confluence and reach confluence during the last day of treatment.

[2] = tested on: HCV RNA in stably HCV RNA-replicating cell line AVA5; assay: Primary in vitro anti-HCV screen: intracellular HCV RNA levels in AVA5 cells (branched DNA assay); assay type: cell-based, Hepatitis C virus; conditions: for HCV % Control / HCV Copies/ml: AVA5, duplicate cultures
Experimental: as §1, with “compounds. […] Intracellular HCV RNA levels” for “compounds. Cultures generally start the assay at 30–50% confluence”, “and cytotoxicity are assessed 24 hours after” for “and reach confluence during”, “last dose” for “last day”, “of compound.” for “of treatment.”
(§2) Assays were conducted using a single dose of test compound. Duplicate cultures for HCV RNA levels (on 48-well plates) and triplicate cultures for cytotoxicity (on 96-well plates) are used.
(§3) Intracellular HCV RNA levels were measured using a commercial assay (Veresant®, Bayer Diagnostics, Inc. Ross, et al. (2002) J. Virol. Meth. 101:159–168, Quantitation of hepatitic C virus RNA by third generation branched DNA-based signal amplification assay). Cytotoxicity was measured using an established neutral red dye uptake assay (Korba, B. E. and J. L. Gerin. 1992. Use of a standardized cell culture assay to determine activities of nucleoside analogs against hepatitis B virus relication. Antivir. Res. 19:55–70). HCV RNA levels in the treated cultures are expressed as a percentage of the mean levels of RNA detected in untreated cultures. A level of 30% or less, HCV RNA relative to control cultures may be considered to be a positive antiviral effect. A level of 50% or less, neutral red dye uptake relative to control cultures may be considered to be a cytotoxic effect.

AVA5 cell line [3] = assay: ATP Cell Viability
AVA5 cell line [4] = assay: MTS Cell Viability
[5] = tested on: AVA5 cell line (derived from human hepatoblastoma cell line Huh7); assay: Primary screen cytotoxicity: neutral red dye uptake; assay type: cell-based; conditions: AVA5
Experimental: as §1, §2, §3

[6] = tested on: HCV replicons in AVA5 cell cultures; assay: Secondary in vitro anti-HCV dose-response assay: intracellular HCV RNA; design: Intracellular HCV RNA Levels: dose or concentration left out as unconfirmed; conditions: for Intracellular HCV RNA Levels: normalized to β-actin RNA
Experimental: (§4) Dividing cultures of AVA5 cells are treated once daily for three days (media is changed with each addition of compound) with 4 concentrations of test compound (2 cultures per concentration). […] Intracellular HCV RNA levels and cytotoxicity are assessed 24 hours following the last treatment as described for the primary assays. The 50% and 90% effective antiviral concentrations (EC50, EC90) and the 50% cytotoxic concentrations (CC50) are calculated and used to generate Selectivity Indexes (S.I., CC50/EC50). An S.I of 10, or greater, may be considered to be a selective antiviral effect.
(§5) The values presented in Table 6 were calculated by linear regression analysis using data from all treated cultures. The standard deviation was calculated using the error of regression generated from the linear regression analysis.
Analysis of intracellular HCV RNA was performed 24 hours following the final treatment. A total of […] were treated a each concentration for each compound. HCV RNA levels were normalized to the level of β-actin RNA in each individual sample.

AVA5 cells = assay: Secondary dose-response assay: cytotoxicity (CC50)
Experimental: as §4, §5

[7] = 10 μM, HCV RNA as percentage of untreated cultures
[8] = 10 μM, once daily for three days
[9] = AVA5, HCV RNA, linear regression
[10] = AVA5, values for α-interferon in IU/ml

Molecule	Normalized Viral Assay ([1]; 1 μM)	Normalized Viral Assay ([1]; 5 μM)	Normalized Viral Assay ([1]; 10 μM)	HCV % Control [2, 7]	ATP Cell Viability (AVA5 cell line [3]; 1 μM)	ATP Cell Viability (AVA5 cell line [3]; 5 μM)	ATP Cell Viability (AVA5 cell line [3]; 10 μM)	MTS Cell Viability (AVA5 cell line [4]; 1 μM)	MTS Cell Viability (AVA5 cell line [4]; 5 μM)	MTS Cell Viability (AVA5 cell line [4]; 10 μM)	also measured
Cc1cc(C)cc(Sc2c(Sc3ccc(F)cc3Cl)c3ccccc3oc2=O)c1 [compound 473]	68.16	40.79	12.45								
Cc1ccc(Sc2c(Sc3ccc(F)cc3Cl)c3ccccc3oc2=O)cc1C [compound 437]	59.33	34.83	20.41								
O=c1oc2ccccc2c(Sc2ccc(Br)cc2)c1Sc1ccc(F)cc1 [compound 412]	55.65	28.13	16.13								
Cc1cc(C)cc(Sc2c(Sc3ccc(F)cc3Cl)c3ccccc3oc2=O)c1 [VQ_473]				39 % Control							HCV Copies/ml [2, 8]: 529743 Copies/ml and 523506 Copies/ml
O=c1cc(Sc2ccccc2F)c2cc(F)ccc2o1 [compound 904]	50.52	37.87	9.27		107.54	100.32	74.11	116.41	108.04	86.22	Neutral Red % Control ([5]; 10 μM, dye uptake relative to untreated cultures, listed as VQ_904): 100 % Control and 101 % Control; Neutral Red O.D. ([5]; 10 μM, listed as VQ_904): 2.237 O.D. and 2.255 O.D.; HCV % Control ([2]; 10 μM, HCV RNA as percentage of untreated cultures, listed as VQ_904): 79 % Control and 75 % Control; HCV Copies/ml ([2]; 10 μM, once daily for three days, listed as VQ_904): 1072174 Copies/ml and 1013181 Copies/ml
O=c1cc(Sc2ccccc2Cl)c2cc(F)ccc2o1 [compound 894]	35.65	9.04	6.84		113.25	109.42	58.26	104.53	83.91	81.24	Neutral Red % Control ([5]; 10 μM, dye uptake relative to untreated cultures, listed as VQ_894): 100 % Control and 101 % Control; Neutral Red O.D. ([5]; 10 μM, listed as VQ_894): 2.234 O.D. and 2.257 O.D.; HCV % Control ([2]; 10 μM, HCV RNA as percentage of untreated cultures, listed as VQ_894): 95 % Control and 84 % Control; HCV Copies/ml ([2]; 10 μM, once daily for three days, listed as VQ_894): 1277826 Copies/ml and 1128325 Copies/ml
COc1ccc2oc(=O)cc(Sc3ccccc3F)c2c1 [compound 824]		52.29	17.28			91.28	75.61		94.56	84.15	Neutral Red % Control ([5]; 10 μM, dye uptake relative to untreated cultures, listed as VQ_824): 99 % Control and 102 % Control; Neutral Red O.D. ([5]; 10 μM, listed as VQ_824): 2.214 O.D. and 2.274 O.D.; HCV % Control ([2]; 10 μM, HCV RNA as percentage of untreated cultures, listed as VQ_824): 101 % Control and 90 % Control; HCV Copies/ml ([2]; 10 μM, once daily for three days, listed as VQ_824): 1357786 Copies/ml and 1211659 Copies/ml
Cc1cc(C)cc(Sc2c(Sc3cccc(Cl)c3)c3ccccc3oc2=O)c1 [compound 468]	72.14	35.09	18.06								S.I. (CC50/EC90) [6]: >250; Intracellular HCV RNA Levels [6]; 10: 1317765 ± 55645 genomic copies/cell; Intracellular HCV RNA Levels [6]; 30: 473805 ± 21625 genomic copies/cell; Intracellular HCV RNA Levels [6]; 100: 194410 ± 7620 genomic copies/cell; Intracellular HCV RNA Levels [6]; 300: 56535 ± 8005 genomic copies/cell; EC50 [6, 9]: 1.2 ± 0.1 µM; EC90 [6, 9]: 8.3 ± 0.6 µM; CC50 (AVA5 cells): > 300 µM
O=c1cc(Sc2cc(Cl)ccc2Cl)c2cc(F)ccc2o1 [compound 901]	24.87	12.80	8.34	63 % Control	105.62	106.63	79.01	107.32	97.37	86.10	Neutral Red % Control ([5]; 10 μM, dye uptake relative to untreated cultures, listed as VQ_901): 102 % Control and 100 % Control; Neutral Red O.D. ([5]; 10 μM, listed as VQ_901): 2.287 O.D. and 2.241 O.D.; HCV Copies/ml ([2]; 10 μM, once daily for three days, listed as VQ_901): 851852 Copies/ml and 846803 Copies/ml
α-interferon											Intracellular HCV RNA Levels ([6]; 1.0 IU/ml): 1169765 ± 37135 genomic copies/cell; Intracellular HCV RNA Levels ([6]; 3.0 IU/ml): 329605 ± 26035 genomic copies/cell; Intracellular HCV RNA Levels ([6]; 10 IU/ml): 103060 ± 14470 genomic copies/cell; EC50 [6, 10]: 1.8 ± 0.2^1 IU/ml; EC90 [6, 10]: 8.2 ± 0.6^1 IU/ml; S.I. (CC50/EC90) ([6]; selectivity index, AVA5): >5556; Neutral Red % Control ([5]; 10 IU/ml, listed as rHu α-IFN): 99 % Control and 103 % Control; Neutral Red O.D. ([5]; 10 IU/ml, listed as rHu α-IFN): 2.217 O.D. and 2.291 O.D.; HCV % Control ([2]; 10 IU/ml, listed as rHu α-IFN): 5 % Control and 6 % Control; HCV Copies/ml ([2]; 10 IU/ml, listed as rHu α-IFN): 71460 Copies/ml and 85467 Copies/ml; effect on HCV RNA (treatment controls, in words) ([2]; at the control concentrations used): induced significant depressions of HCV RNA replication; approximate EC90 ([2]; positive antiviral control, no cytotoxicity): ~10 IU/ml; CC50 (AVA5 cells; [10]): >10000^1,2 IU/ml
Cc1ccc(Sc2c(Sc3ccc(F)cc3Cl)c3ccccc3oc2=O)cc1C [VQ_437]				41 % Control and 38 % Control							HCV Copies/ml [2, 8]: 556515 Copies/ml and 507191 Copies/ml
COc1ccc2oc(=O)cc(Sc3ccc(F)cc3F)c2c1 [compound 830]	87.63	46.87	40.35		106.44	97.11	104.41	112.38	101.06	98.85	
O=c1cc(Sc2ccc(F)cc2Cl)c2cc(F)ccc2o1 [compound 899]	40.10	10.66	10.32		102.77	112.43	105.60	106.10	90.22	85.37	Neutral Red % Control ([5]; 10 μM, dye uptake relative to untreated cultures, listed as VQ_899): 100 % Control and 102 % Control; Neutral Red O.D. ([5]; 10 μM, listed as VQ_899): 2.237 O.D. and 2.286 O.D.; HCV % Control ([2]; 10 μM, HCV RNA as percentage of untreated cultures, listed as VQ_899): 66 % Control and 65 % Control; HCV Copies/ml ([2]; 10 μM, once daily for three days, listed as VQ_899): 886875 Copies/ml and 873484 Copies/ml
O=c1oc2ccccc2c(Sc2ccc(Br)cc2)c1Sc1ccc(F)cc1 [VQ_412]				54 % Control and 49 % Control							HCV Copies/ml [2, 8]: 726473 Copies/ml and 656755 Copies/ml
Cc1cc(C)cc(Sc2c(Sc3cccc(Cl)c3)c3ccccc3oc2=O)c1 [VQ_468]				23 % Control and 24 % Control							HCV Copies/ml [2, 8]: 306102 Copies/ml and 318777 Copies/ml
